# Reference: ChEMBL document CHEMBL1201862, “PubChem BioAssay data set” (2004)
#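 Protocol summary: plate cells (96-well), add compound at 5 concentrations, incubate 48 h, interpolate endpoints linearly. GI50 marks 50% less growth.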 Active and inactive are the calls of the source. Rule as the data show it: active = GI50 up to about 1.1 µM and inactive = higher.
# Tests used:
# Experiment in all cases: DTP human tumour cell line panel, 48 h
# SW-620 = system: SW-620
# SK-MEL-28 = system: SK-MEL-28
# HCT-116 = system: HCT-116
# 786-0 = system: 786-0
# HL-60 = system: HL-60
# DMS-273 = system: DMS-273
# RXF 631 = system: RXF 631
# NCI-H460 = system: NCI-H460
# SNB-75 = system: SNB-75
# A498 = system: A498
# KM-20L2 = system: KM-20L2
# RXF 393 = system: RXF 393
# RPMI-8226 = system: RPMI-8226
# MOLT-4 = system: MOLT-4
# LXFL 529 = system: LXFL 529
# SK-MEL-5 = system: SK-MEL-5
# SK-OV-3 = system: SK-OV-3
# SNB-19 = system: SNB-19
# DLD-1 = system: DLD-1
# TK-10 = system: TK-10
# COLO 205 = system: COLO 205
# Malme-3M = system: Malme-3M
# SN12C = system: SN12C
# ACHN = system: ACHN
# A549 = system: A549
# K562 = system: K562
# NCI-H23 = system: NCI-H23
# CAKI-1 = system: CAKI-1
# HOP-92 = system: HOP-92
# SNB-78 = system: SNB-78
# HCC 2998 = system: HCC 2998
# HOP-62 = system: HOP-62
# SF-295 = system: SF-295
# OVCAR-3 = system: OVCAR-3
# DMS-114 = system: DMS-114
# CCRF-CEM = system: CCRF-CEM
# OVCAR-5 = system: OVCAR-5
# UACC-257 = system: UACC-257
# HCT-15 = system: HCT-15
# NCI-H522 = system: NCI-H522
# M19-MEL = system: M19-MEL
# IGROV-1 = system: IGROV-1
# U-251 = system: U-251
# KM12 = system: KM12
# SF-268 = system: SF-268
# UACC-62 = system: UACC-62
# M14 = system: M14
# SF-539 = system: SF-539
# UO-31 = system: UO-31
# SK-MEL-2 = system: SK-MEL-2
# LOX IMVI = system: LOX IMVI
# EKVX = system: EKVX
# OVCAR-8 = system: OVCAR-8
# OVCAR-4 = system: OVCAR-4
# XF498 = system: XF498
# HT-29 = system: HT-29
smiles,measurement,setting,value
O=C(Nc1ccc(Cl)cc1)/C(Cc1cccc[n+]1[O-])=N\Nc1ccc([N+](=O)[O-])cc1[N+](=O)[O-],GI50,SW-620,> 100 µM (inactive)
same,GI50,SK-MEL-28,> 100 µM (inactive)
same,GI50,HCT-116,> 100 µM (inactive)
same,GI50,786-0,> 100 µM (inactive)
same,GI50,HL-60,> 100 µM (inactive)
same,GI50,DMS-273,> 100 µM (inactive)
same,GI50,RXF 631,> 100 µM (inactive)
same,GI50,NCI-H460,> 100 µM (inactive)
same,GI50,SNB-75,> 100 µM (inactive)
same,GI50,A498,> 100 µM (inactive)
same,GI50,KM-20L2,> 100 µM (inactive)
same,GI50,RXF 393,> 100 µM (inactive)
same,GI50,RPMI-8226,> 100 µM (inactive)
same,GI50,MOLT-4,> 100 µM (inactive)
same,GI50,LXFL 529,> 100 µM (inactive)
same,GI50,SK-MEL-5,> 100 µM (inactive)
same,GI50,SK-OV-3,> 100 µM (inactive)
same,GI50,SNB-19,> 100 µM (inactive)
same,GI50,DLD-1,> 100 µM (inactive)
same,GI50,TK-10,> 100 µM (inactive)
same,GI50,COLO 205,> 100 µM (inactive)
same,GI50,Malme-3M,> 100 µM (inactive)
same,GI50,SN12C,> 100 µM (inactive)
same,GI50,ACHN,> 100 µM (inactive)
same,GI50,A549,> 100 µM (inactive)
same,GI50,K562,> 100 µM (inactive)
same,GI50,NCI-H23,> 100 µM (inactive)
same,GI50,CAKI-1,> 100 µM (inactive)
same,GI50,HOP-92,> 100 µM (inactive)
same,GI50,SNB-78,> 100 µM (inactive)
same,GI50,HCC 2998,> 100 µM (inactive)
same,GI50,HOP-62,> 100 µM (inactive)
same,GI50,SF-295,> 100 µM (inactive)
same,GI50,OVCAR-3,> 100 µM (inactive)
same,GI50,DMS-114,> 100 µM (inactive)
same,GI50,CCRF-CEM,> 100 µM (inactive)
same,GI50,OVCAR-5,> 100 µM (inactive)
same,GI50,UACC-257,> 100 µM (inactive)
same,GI50,HCT-15,> 100 µM
same,GI50,NCI-H522,> 100 µM (inactive)
same,GI50,M19-MEL,> 100 µM (inactive)
same,GI50,IGROV-1,> 100 µM (inactive)
same,GI50,U-251,> 100 µM (inactive)
same,GI50,KM12,> 100 µM (inactive)
same,GI50,SF-268,> 100 µM (inactive)
same,GI50,UACC-62,> 100 µM (inactive)
same,GI50,M14,> 100 µM (inactive)
same,GI50,SF-539,> 100 µM (inactive)
same,GI50,UO-31,> 100 µM (inactive)
same,GI50,SK-MEL-2,> 100 µM (inactive)
same,GI50,LOX IMVI,> 100 µM (inactive)
same,GI50,EKVX,> 100 µM (inactive)
same,GI50,OVCAR-8,> 100 µM (inactive)
same,GI50,OVCAR-4,> 100 µM (inactive)
CC(C)NCC(O)COC(=O)c1cccs1 (stereo not given),GI50,SW-620,> 100 µM (inactive)
same,GI50,SK-MEL-28,> 100 µM (inactive)
same,GI50,786-0,> 100 µM (inactive)
same,GI50,XF498,> 100 µM (inactive)
same,GI50,HL-60,> 100 µM (inactive)
same,GI50,DMS-273,> 100 µM (inactive)
same,GI50,RXF 631,> 100 µM (inactive)
same,GI50,NCI-H460,> 100 µM (inactive)
same,GI50,SNB-75,67.8 µM (inactive)
same,GI50,KM-20L2,> 100 µM (inactive)
same,GI50,RXF 393,> 100 µM (inactive)
same,GI50,RPMI-8226,> 100 µM (inactive)
same,GI50,MOLT-4,> 100 µM (inactive)
same,GI50,LXFL 529,> 100 µM (inactive)
same,GI50,SK-MEL-5,> 100 µM (inactive)
same,GI50,SK-OV-3,> 100 µM (inactive)
same,GI50,SNB-19,> 100 µM (inactive)
same,GI50,DLD-1,> 100 µM (inactive)
same,GI50,TK-10,> 100 µM (inactive)
same,GI50,COLO 205,> 100 µM (inactive)
same,GI50,Malme-3M,> 100 µM (inactive)
same,GI50,SN12C,> 100 µM (inactive)
same,GI50,ACHN,> 100 µM (inactive)
same,GI50,A549,> 100 µM (inactive)
same,GI50,K562,> 100 µM (inactive)
same,GI50,NCI-H23,> 100 µM (inactive)
same,GI50,CAKI-1,> 100 µM (inactive)
same,GI50,HOP-92,> 100 µM (inactive)
same,GI50,SNB-78,> 100 µM (inactive)
same,GI50,HCC 2998,> 100 µM (inactive)
same,GI50,HOP-62,> 100 µM (inactive)
same,GI50,HT-29,> 100 µM (inactive)
same,GI50,SF-295,> 10 µM (inactive)
same,GI50,OVCAR-3,> 100 µM (inactive)
same,GI50,CCRF-CEM,> 100 µM (inactive)
same,GI50,OVCAR-5,> 100 µM (inactive)
same,GI50,UACC-257,> 100 µM (inactive)
same,GI50,HCT-15,> 100 µM
same,GI50,NCI-H522,> 100 µM (inactive)
same,GI50,M19-MEL,> 100 µM (inactive)
same,GI50,IGROV-1,> 100 µM (inactive)
same,GI50,KM12,> 100 µM (inactive)
same,GI50,SF-268,> 100 µM (inactive)
same,GI50,UACC-62,> 100 µM (inactive)
same,GI50,M14,> 100 µM (inactive)
same,GI50,UO-31,> 100 µM (inactive)
same,GI50,SK-MEL-2,> 100 µM (inactive)
same,GI50,LOX IMVI,> 100 µM (inactive)
same,GI50,EKVX,> 100 µM (inactive)
same,GI50,OVCAR-8,> 100 µM (inactive)
same,GI50,OVCAR-4,> 100 µM (inactive)
